Tested on: NCI-H1876 complex spheroid growth, % test/control
Test: Anticancer human tumor NCI-H1876 cell line growth inhibition [Asc];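 also: compound exposure lasted 7 days starting three days after seeding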;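 as to viability, T/C: 100% = DMSO vehicle control wells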
Conditions: for IC50: curve of first compound; for viability, T/C: stronger effect = lower value
Outline: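 Stromal components (HUVEC and hMSC) are co-assembled with the cancer cells into multicellular spheroids. Drugs are then added singly or paired, at concentrations falling by half-log increments from a clinically achievable maximum, capped at 10 microM without known Cmax.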

With `NC1CCC(NC2CC2c2ccccc2)CC1` (configuration not stated) + CNC(C)C(=O)NC1CN(S(=O)(=O)c2cccc(S(=O)(=O)N3CCC4CCC(C(=O)NC(c5ccccc5)c5ccccc5)N4C(=O)C(NC(=O)C(C)NC)C3)c2)CCC2CCC(C(=O)NC(c3ccccc3)c3ccccc3)N2C1=O the IC50 (second compound 0.00316 µM) was over 100 nM, the IC50 (second compound 0.01 µM) was over 100 nM and the IC50 (second compound 0.0316 µM) was over 100 nM. For the same compound, the IC50 (second compound 0.1 µM) was over 100 nM, the IC50 (second compound 0.316 µM) was over 100 nM and the IC50 (second compound 1 µM) was over 100 nM. The viability, T/C (second compound 0.00316 µM, first compound 0.000316 µM) was 119%, the viability, T/C (second compound 0.00316 µM, first compound 0.001 µM) was 118% and the viability, T/C (second compound 0.00316 µM, first compound 0.00316 µM) was 132%. The viability, T/C (second compound 0.00316 µM, first compound 0.01 µM) was 133%, the viability, T/C (second compound 0.00316 µM, first compound 0.0316 µM) was 131% and the viability, T/C (second compound 0.00316 µM, first compound 0.1 µM) was 119%. It also gave a viability, T/C (second compound 0.01 µM, first compound 0.000316 µM) of 119%, a viability, T/C (second compound 0.01 µM, first compound 0.001 µM) of 121% and a viability, T/C (second compound 0.01 µM, first compound 0.00316 µM) of 121%. The viability, T/C (second compound 0.01 µM, first compound 0.01 µM) was 124%, the viability, T/C (second compound 0.01 µM, first compound 0.0316 µM) was 128% and the viability, T/C (second compound 0.01 µM, first compound 0.1 µM) was 140%. The viability, T/C (second compound 0.0316 µM, first compound 0.000316 µM) was 116%, the viability, T/C (second compound 0.0316 µM, first compound 0.001 µM) was 118% and the viability, T/C (second compound 0.0316 µM, first compound 0.00316 µM) was 138%. It also gave a viability, T/C (second compound 0.0316 µM, first compound 0.01 µM) of 125%, a viability, T/C (second compound 0.0316 µM, first compound 0.0316 µM) of 127% and a viability, T/C (second compound 0.0316 µM, first compound 0.1 µM) of 127%. It also gave a viability, T/C (second compound 0.1 µM, first compound 0.000316 µM) of 121%, a viability, T/C (second compound 0.1 µM, first compound 0.001 µM) of 128% and a viability, T/C (second compound 0.1 µM, first compound 0.00316 µM) of 128%. The viability, T/C (second compound 0.1 µM, first compound 0.01 µM) was 128%, the viability, T/C (second compound 0.1 µM, first compound 0.0316 µM) was 128% and the viability, T/C (second compound 0.1 µM, first compound 0.1 µM) was 121%. The viability, T/C (second compound 0.316 µM, first compound 0.000316 µM) was 131%, the viability, T/C (second compound 0.316 µM, first compound 0.001 µM) was 113% and the viability, T/C (second compound 0.316 µM, first compound 0.00316 µM) was 118%. The viability, T/C (second compound 0.316 µM, first compound 0.01 µM) was 130%, the viability, T/C (second compound 0.316 µM, first compound 0.0316 µM) was 143% and the viability, T/C (second compound 0.316 µM, first compound 0.1 µM) was 124%. For the same compound, the viability, T/C (second compound 1 µM, first compound 0.000316 µM) was 122%, the viability, T/C (second compound 1 µM, first compound 0.001 µM) was 129% and the viability, T/C (second compound 1 µM, first compound 0.00316 µM) was 136%. It also gave a viability, T/C (second compound 1 µM, first compound 0.01 µM) of 131%, a viability, T/C (second compound 1 µM, first compound 0.0316 µM) of 137% and a viability, T/C (second compound 1 µM, first compound 0.1 µM) of 143%.

Source: PubChem BioAssay AID1963441 (Molecular Pharmacology Branch, DTP, NCI, 2024)
